From patent publication US12605369B2, “Amido-substituted heterocyclic compounds and methods of use thereof for the treatment of herpes viruses” (Merck Sharp & Dohme LLC, priority 2019, dated 2026)
Where two headings read alike, the source gives them in different places.

What was measured:
[1] = molecular target: T1, varicella zoster virus DNA polymerase (Varicella-zoster virus, UniProt P09252); assay: VZV polymerase assay (AlphaLISA, Example 15); type: biochemical; conditions: VZV polymerase 0.4 nM; 30 min pre-incubation; 60 min at 37° C.
T1 construct: made in house; host or cells: SF21 insect cells (baculovirus vector)
Experimental: (§1) CMV and VZW Polymerase Assays
(§2) Human cytomegalovirus and varicella zoster virus DNA polymerases were expressed via baculovirus vector in SF21 cells and purified. Heterodimeric nucleic acid substrate used in the herpesvirus polymerase reactions were generated by annealing a 59-mer template to a 17-mer digoxigenin-labeled primer. Polymerase (HCMV final concentration of 0.2 nM; VZV final concentration of 0.4 nM) was combined with an inhibitor compound or DMSO in assay buffer (10 mM HEPES, pH 7.5, 25 mM KCl, 25 mM NaCl, 5 mM MgCl2, 5% glycerol, 0.67 mg/ml bovine serum albumin, and 1 mM tris(2-carboxyethyl)phosphine)), and this mixture was pre-incubated for 30 minutes at room temperature in 384-well microtiter plates. The polymerization reaction was initiated by the addition of template/primer substrate (final concentration: 1.6 nM) and dNTPs (final concentration: 24 nM dCTP, 24 nMdGTP, 16 nM dATP, 16 nM dTTP, and 0.8 nM biotin-dUTP). After a 60 minute incubation period at 37° C., the reactions were terminated using quench buffer (25 mM HEPES pH 7.5, 100 mM NaCl, 0.25% Tween-20, 12 mM EDTA, and 1 mg/ml bovine serum albumin). Incorporation of biotinylated UTP was detected with 2.5-5 μg/mL anti-DIG AlphaLISA acceptor beads and 5-10 μg/mL streptavidin AlphaLISA donor beads (PerkinElmer). Compound effects were normalized to the window defined by the controls (DMSO only and pre-quenched wells) and were fit using a 4-parameter algorithm to report an IC50.

HCMV Strain AD169 = assay: Viral qPCR assay, HCMV (Example 14); type: cell-based
Experimental: (§3) MRCS and Vero cells were obtained from ATCC and were maintained at 37° C./5% CO2/90% relative humidity in Minimal Essential Medium with 10% fetal bovine serum, […], 100 units/mL penicillin and 100 ug/mL streptomycin. Assay plates were prepared by dispensing compounds dissolved in DMSO into wells of 384 well collagen-coated plates using an ECHO acoustic dispenser. Each test compound was tested in a 10-point, serial 3-fold dilution. Controls included uninfected cells and infected cells treated only with DMSO. Assays were initiated by mixing selected cells, in suspension, with virus, and dispensing 50 μl/well infected cells to pre-plated compounds. Plates were incubated at 37° C./5% CO2/90% relative humidity for ˜72 hours to permit genomic replication, and infected cells were lysed by the addition of an equal volume of lysis buffer (10 mM Tris-HCl, pH8, 50 mM KCl, 2 mM MgCl2, 0.45% NP-40, 0.45% Tween-20, and 100 μg/mL proteinase K). An aliquot of the lysate was then transferred to a 384-well PCR plate and incubated at 56° C. for 1 hour, and then at 95° C. for 10 minutes. Levels of a viral gene were measured in 10 ul qPCR assays using TaqMan® Gene Expression Master Mix (Applied Biosystems) and an 7900HT Fast Real-Time PCR System with 384-Well Block Module. 7-point, serial 10-fold dilutions of a plasmid standard were run on each plate to generate a standard curve, and genome copies numbers were calculated by plotting experimental Ct onto linear regression of the standard curve. Compound effects on viral genome copy number were normalized to the window defined by the controls. Calculated % effects were fit using a 4-parameter algorithm, and EC50 was reported. • HCMV: Strain AD169 was assayed in MRC-5 cells and was used at 0.05-0.1 pfu/cell. The assays were performed in either growth media or in the same media with 50% fetal bovine serum. Primer-probe set was Thermo Fisher Assay ID=AIFATFK. • HSV-1: Strain F was assayed in Vero or MRCS cells and was used at 0.0005-0.004 pfu/cell in growth medium. Primer-probe set was Thermo Fisher Assay ID=AIBJZIB. • HSV-2: Strain G was assayed in Vero or MRCS cells and was used at 0.004-0.4 pfu/cell in growth medium. Primer-probe set was Thermo Fisher Assay ID=AICSXOJ.

HSV-2 Strain G = assay: Viral qPCR assay, HSV-2 (Example 14); type: cell-based; conditions: Strain G in Vero or MRCS cells, 0.004-0.4 pfu/cell, viral genome copy number by qPCR, read-out: HSV2 Cell EC50
Experimental: as §3

HSV-1 Strain F = assay: Viral qPCR assay, HSV-1 (Example 14); type: cell-based; conditions: Strain F in Vero or MRCS cells, 0.0005-0.004 pfu/cell, viral genome copy number by qPCR, read-out: HSV1 Cell EC50
Experimental: as §3

[2] = molecular target: T2, Human cytomegalovirus DNA polymerase (Human cytomegalovirus, UniProt P08546); assay: CMV polymerase assay (AlphaLISA, Example 15); type: biochemical; conditions: HCMV polymerase 0.2 nM; 30 min pre-incubation; 60 min at 37° C.
T2 construct: made in house; host or cells: SF21 insect cells (baculovirus vector)
Experimental: as §1, §2

[3] = Human betaherpesvirus 5, AD169, MRC5, 72 h, Strain AD169 in MRC-5 cells, 0.05-0.1 pfu/cell, ~72 hours, viral genome copy number by qPCR, growth media or 50% fetal bovine serum, read-out: CMV Cell EC50
[4] = Human alphaherpesvirus 2, Vero, 72 h
[5] = Human alphaherpesvirus 1, Vero, 72 h
[6] = Strain AD169 in MRC-5 cells, 0.05-0.1 pfu/cell, ~72 hours, viral genome copy number by qPCR, growth media or 50% fetal bovine serum, read-out: CMV Cell EC50

T2 sequence (P08546 whole entry): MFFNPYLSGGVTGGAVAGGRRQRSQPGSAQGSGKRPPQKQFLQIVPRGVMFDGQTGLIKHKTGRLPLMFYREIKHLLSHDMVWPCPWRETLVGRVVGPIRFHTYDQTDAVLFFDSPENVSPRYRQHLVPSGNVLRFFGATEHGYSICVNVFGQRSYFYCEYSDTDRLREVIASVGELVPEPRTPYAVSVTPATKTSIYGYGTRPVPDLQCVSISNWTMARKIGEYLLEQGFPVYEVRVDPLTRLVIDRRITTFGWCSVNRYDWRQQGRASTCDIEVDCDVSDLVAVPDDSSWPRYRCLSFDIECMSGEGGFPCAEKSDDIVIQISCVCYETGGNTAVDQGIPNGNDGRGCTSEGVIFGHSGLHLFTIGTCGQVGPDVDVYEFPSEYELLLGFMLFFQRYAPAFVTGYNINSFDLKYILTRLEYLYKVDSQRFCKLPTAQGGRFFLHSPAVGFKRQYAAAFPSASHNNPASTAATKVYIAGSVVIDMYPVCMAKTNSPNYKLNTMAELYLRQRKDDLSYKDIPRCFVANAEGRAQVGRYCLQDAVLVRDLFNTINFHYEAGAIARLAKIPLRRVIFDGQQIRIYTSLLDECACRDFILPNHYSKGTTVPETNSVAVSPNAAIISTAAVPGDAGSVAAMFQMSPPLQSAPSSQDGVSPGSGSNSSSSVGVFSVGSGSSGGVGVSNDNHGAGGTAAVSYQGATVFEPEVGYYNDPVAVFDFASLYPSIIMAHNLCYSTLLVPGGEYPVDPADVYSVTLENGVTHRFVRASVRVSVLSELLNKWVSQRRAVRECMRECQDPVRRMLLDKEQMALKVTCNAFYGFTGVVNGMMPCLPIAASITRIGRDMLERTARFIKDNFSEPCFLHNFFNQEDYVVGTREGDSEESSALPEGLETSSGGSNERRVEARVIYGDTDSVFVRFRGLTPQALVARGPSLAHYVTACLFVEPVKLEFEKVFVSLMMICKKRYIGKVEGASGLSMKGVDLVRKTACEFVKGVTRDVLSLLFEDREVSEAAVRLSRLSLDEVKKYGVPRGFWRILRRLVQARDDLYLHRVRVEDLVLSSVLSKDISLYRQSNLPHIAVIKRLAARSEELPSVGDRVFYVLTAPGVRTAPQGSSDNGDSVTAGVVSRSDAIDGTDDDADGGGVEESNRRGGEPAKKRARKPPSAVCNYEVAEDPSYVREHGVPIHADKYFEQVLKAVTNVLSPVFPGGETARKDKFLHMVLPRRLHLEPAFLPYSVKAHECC
T1 sequence (P09252 whole entry): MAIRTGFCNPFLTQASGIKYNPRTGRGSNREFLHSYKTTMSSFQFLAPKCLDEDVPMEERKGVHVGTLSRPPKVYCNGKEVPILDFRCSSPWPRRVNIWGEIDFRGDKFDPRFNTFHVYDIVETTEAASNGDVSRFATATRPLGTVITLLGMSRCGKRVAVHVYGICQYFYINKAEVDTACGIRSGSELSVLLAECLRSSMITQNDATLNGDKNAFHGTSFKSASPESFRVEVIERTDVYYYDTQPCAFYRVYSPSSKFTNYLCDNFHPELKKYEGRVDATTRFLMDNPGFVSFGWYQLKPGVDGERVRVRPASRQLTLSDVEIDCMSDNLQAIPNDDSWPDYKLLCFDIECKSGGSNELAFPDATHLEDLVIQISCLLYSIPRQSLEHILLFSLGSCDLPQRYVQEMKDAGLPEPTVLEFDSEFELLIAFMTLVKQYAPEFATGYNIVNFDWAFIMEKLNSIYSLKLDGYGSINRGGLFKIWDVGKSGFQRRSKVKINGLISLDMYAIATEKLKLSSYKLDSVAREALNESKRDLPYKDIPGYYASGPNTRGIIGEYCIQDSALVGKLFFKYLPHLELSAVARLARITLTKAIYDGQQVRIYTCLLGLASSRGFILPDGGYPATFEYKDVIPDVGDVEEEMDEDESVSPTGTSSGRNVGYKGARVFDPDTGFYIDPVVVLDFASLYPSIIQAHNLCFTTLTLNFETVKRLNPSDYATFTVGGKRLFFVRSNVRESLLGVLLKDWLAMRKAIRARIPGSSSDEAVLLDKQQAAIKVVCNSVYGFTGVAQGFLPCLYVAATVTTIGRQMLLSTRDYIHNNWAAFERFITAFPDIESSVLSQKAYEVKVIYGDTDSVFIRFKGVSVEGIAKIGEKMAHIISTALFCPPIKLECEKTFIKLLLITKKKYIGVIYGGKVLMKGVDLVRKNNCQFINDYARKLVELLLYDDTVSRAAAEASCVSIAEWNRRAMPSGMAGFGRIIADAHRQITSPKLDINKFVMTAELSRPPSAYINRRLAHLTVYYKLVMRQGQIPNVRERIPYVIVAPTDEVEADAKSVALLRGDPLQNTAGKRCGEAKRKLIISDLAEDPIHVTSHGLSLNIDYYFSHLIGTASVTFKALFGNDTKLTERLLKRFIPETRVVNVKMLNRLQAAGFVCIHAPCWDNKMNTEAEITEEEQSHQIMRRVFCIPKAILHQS

| IC50 [1] [µM] | EC50 (HSV-2 Strain G; [4]) [µM] | EC50 (HSV-1 Strain F; [5]) [µM] | IC50 [2] [µM] | EC50 (HSV-2 Strain G; ~72 hours) [µM] | EC50 (HSV-1 Strain F; ~72 hours) [µM] | SMILES | EC50 (HCMV Strain AD169; [3]) [nM] | EC50 (HCMV Strain AD169; [6]) [nM] | EC50 (HCMV Strain AD169; Human betaherpesvirus 5, AD169, MRC5, 72 h, read-out: CMV Cell EC50 (nM)) [nM] |
| --- | --- | --- | --- | --- | --- | --- | --- | --- | --- |
| 0.018 | 0.318 | 0.166 | 0.012 |  |  | COCc1cc(Cl)ccc1CC(=O)Nc1ccc(C[C@H]2COC(=O)N2)c(OC)n1 [Compound 5] | 116 |  |  |
|  | 0.291 | 0.282 | 0.014 |  |  | COc1nc(N2CCN(c3ccc(Cl)cc3)C2=O)ccc1C[C@H]1COC(=O)N1 [Compound 10] | 522 |  |  |
|  |  |  |  | 4.99 | 3.51 | COc1nc(NC(=O)C2CCc3cc(C#N)ccc3N2C)ccc1C[C@H]1COC(=O)N1 (stereo partly shown) [Compound 29] |  | 345 |  |
|  |  |  |  | 0.173 | 0.117 | COc1nc(NC(=O)C2CCc3cc(C#N)ccc3C2)ccc1C[C@H]1COC(=O)N1 (stereo partly shown) [Compound 32] |  | 73 |  |
|  |  |  |  | > 80.2 | > 80.2 | COc1nc(NC(=O)C2(C)CCc3cc(C#N)ccc3O2)ccc1C[C@H]1COC(=O)N1 (stereo partly shown) [Compound 34] |  | 39800 |  |
|  |  |  |  | 0.073 | 0.06 | COc1nc(NC(=O)C2CN(C)c3cc(C#N)ccc3O2)ccc1C[C@H]1COC(=O)N1 (stereo partly shown) [Compound 26] |  | 39 |  |
|  |  |  |  | 10.7 | 7.44 | COc1nc(NC(=O)C2CCc3cc(C#N)ccc3N2C)ccc1C[C@H]1COC(=O)N1 (stereo partly shown) [Compound 30] |  | 2720 |  |
| 0.034 | 0.884 | 0.958 | 0.01 |  |  | COc1nc(N2CCC(F)(c3ccc(C#N)cc3)C2=O)ccc1C[C@H]1COC(=O)N1 (single isomer, unassigned) [Compound 8] | 434 |  |  |
| 0.008 | 0.198 | 0.152 | 0.009 |  |  | COCc1cc(C#N)ccc1CC(=O)Nc1ccc(C[C@H]2COC(=O)N2)c(OC)n1 [Compound 6] | 36 |  |  |
| 0.0004 | 0.056 | 0.044 | 0.0004 |  |  | COc1nc(NC(=O)C2CCc3cc(C#N)ccc3O2)ccc1C[C@H]1COC(=O)N1 (stereo partly shown) [Compound 23] | 38 |  |  |
|  | 0.099 | 0.127 | 0.023 |  |  | COc1nc(NC(=O)C2CCc3cc(Cl)ccc32)ccc1C[C@H]1COC(=O)N1 (stereo partly shown) [Compound 17] | 133 |  |  |
| 0.008 | 0.191 | 0.3 | 0.022 |  |  | COc1nc(NC(=O)Cc2ccc(C#N)cc2)ccc1C[C@H]1COC(=O)N1 [Compound 13] | 128 |  |  |
|  |  |  |  | 11.1 | 8.92 | COc1nc(NC(=O)C2(C)CCc3cc(C#N)ccc3O2)ccc1C[C@H]1COC(=O)N1 (stereo partly shown) [Compound 33] |  | 1660 |  |
|  | 0.1 | 0.131 | 0.035 |  |  | COc1nc(N2CCN(Cc3ccc(C#N)cc3)C2=O)ccc1C[C@H]1COC(=O)N1 [Compound 22] | 318 |  |  |
|  | 0.802 | 0.381 |  |  |  | COc1nc(NC(=O)[C@@H]2Cc3ccc(C#N)cc3CN2C)ccc1C[C@H]1COC(=O)N1 [Compound 28] | 175 |  |  |
|  | 0.134 | 0.281 | 0.011 |  |  | COc1nc(NC(=O)Cc2ccc(C(F)(F)F)c(F)c2)ccc1C[C@H]1COC(=O)N1 [Compound 14] | 486 |  |  |
|  |  |  | 0.108 |  |  | COc1nc(NC(=O)Cc2ccc(Cl)cc2COCc2ccccc2)ccc1C[C@H]1COC(=O)N1 [Compound 2] | 3550 |  |  |
|  |  |  |  | 0.583 | 0.252 | COc1nc(NC(=O)C2Cc3ccc(C#N)cc3CN2)ccc1C[C@H]1COC(=O)N1 (stereo partly shown) [Compound 35] |  | 206 |  |
|  | 0.09 | 0.309 | 0.029 |  |  | COc1nc(N2CCN(c3ccc(C#N)cc3)C2=O)ccc1C[C@H]1COC(=O)N1 [Compound 21] | 369 |  |  |
|  |  |  |  | 48.4 | 70.1 | COc1nc(NC(=O)C2CCc3cc(C#N)ccc3C2)ccc1C[C@H]1COC(=O)N1 (stereo partly shown) [Compound 31] |  | 11100 |  |
|  |  |  |  | 11.1 | 1.94 | COc1nc(NC(=O)C2Cc3ccc(C#N)cc3CN2)ccc1C[C@H]1COC(=O)N1 (stereo partly shown) [Compound 36] |  | 1660 |  |
| 0.001 | 0.148 | 0.128 | 0.0014 |  |  | COc1nc(NC(=O)C2CCc3cc(Cl)ccc3O2)ccc1C[C@H]1COC(=O)N1 (stereo partly shown) [Compound 18] | 435 |  |  |
|  | 0.504 | 0.396 | 0.012 |  |  | COc1nc(NC(=O)Cc2ccc(Cl)cc2CO)ccc1C[C@H]1COC(=O)N1 [Compound 3] | 178 |  |  |
| 0.007 | 0.259 | 0.311 | 0.01 |  |  | COc1nc(NC(=O)C2CCc3cc(C#N)ccc32)ccc1C[C@H]1COC(=O)N1 (stereo partly shown) [Compound 19] | 475 |  |  |
| 4.82 |  |  | 3.77 |  |  | COc1nc(NC(=O)N2Cc3ccc(Cl)cc3C2)ccc1C[C@H]1COC(=O)N1 [Compound 12] | > 9900 |  |  |
| 0.008 | 0.523 | 0.453 | 0.0075 |  |  | COc1nc(NC(=O)Cc2ccc(C#N)cc2F)ccc1C[C@H]1COC(=O)N1 [Compound 15] | 83 |  |  |
| 0.005 | 0.132 | 0.124 | 0.006 |  |  | COc1nc(N2CCC(c3ccc(C#N)cc3)C2=O)ccc1C[C@H]1COC(=O)N1 (stereo partly shown) [Compound 20] | 120 |  |  |
|  |  |  |  | 12.9 | 62 | COc1nc(NC(=O)C2CN(C)c3cc(C#N)ccc3O2)ccc1C[C@H]1COC(=O)N1 (stereo partly shown) [Compound 27] |  | 10600 |  |

| SMILES | IC50 [1] [µM] | EC50 (HSV-2 Strain G; [4]) [µM] | EC50 (HSV-1 Strain F; [5]) [µM] | IC50 [2] [µM] | EC50 (HSV-2 Strain G; ~72 hours) [µM] | EC50 (HSV-1 Strain F; ~72 hours) [µM] | EC50 (HCMV Strain AD169; [3]) [nM] | EC50 (HCMV Strain AD169; [6]) [nM] | EC50 (HCMV Strain AD169; Human betaherpesvirus 5, AD169, MRC5, 72 h, read-out: CMV Cell EC50 (nM)) [nM] |
| --- | --- | --- | --- | --- | --- | --- | --- | --- | --- |
| COc1nc(N2CCN(c3ccc(C#N)c(F)c3)C2=O)ccc1C[C@H]1COC(=O)N1 [Compound 11] |  |  |  | 0.03 |  |  |  |  | 596 |
